This note sets out measurements from patent US20090221642A1, “MUSCARINIC RECEPTOR AGONISTS, COMPOSITIONS, METHODS OF TREATMENT THEREOF, AND PROCESSES FOR PREPARATION THEREOF-176” (AstraZeneca AB, priority 2008, published 2009).

One test has as its target T1, hM5 (human Muscarinic receptor subtype 5) (Homo sapiens, UniProt P08912).
T1 construct: expressed in transfected cells; host or cells: CHO cells (Chinese hamster ovary cells, ATCC)
T1 sequence (P08912 1-532): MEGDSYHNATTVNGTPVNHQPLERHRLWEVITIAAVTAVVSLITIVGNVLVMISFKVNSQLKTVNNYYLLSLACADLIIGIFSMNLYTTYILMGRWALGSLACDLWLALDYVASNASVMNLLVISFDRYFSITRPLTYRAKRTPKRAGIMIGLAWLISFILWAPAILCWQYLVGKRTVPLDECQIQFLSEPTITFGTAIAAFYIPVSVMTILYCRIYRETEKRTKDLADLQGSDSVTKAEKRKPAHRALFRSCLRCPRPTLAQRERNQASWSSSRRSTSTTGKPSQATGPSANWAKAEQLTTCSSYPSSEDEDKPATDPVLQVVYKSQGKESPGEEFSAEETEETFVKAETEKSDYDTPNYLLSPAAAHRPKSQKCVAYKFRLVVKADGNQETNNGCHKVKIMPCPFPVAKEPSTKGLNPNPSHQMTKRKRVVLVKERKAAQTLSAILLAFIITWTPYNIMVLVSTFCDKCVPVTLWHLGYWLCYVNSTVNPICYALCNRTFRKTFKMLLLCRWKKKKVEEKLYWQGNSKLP
In words: Human M5 calcium mobilization FLIPR assay. It counts as cell-based. The settings on record: hM5 EC50 (nM), hM5 expressed in CHO cells, intracellular Ca2+ release. How it is done:
Human M1, rat M1, human M3 and human M5 Calcium Mobilization FLIPR™ Assay
The compound activity in the present invention (EC50 or IC50) is measured using a 384 plate-based imaging assay that monitors drug induced intracellular Ca^2+ release in whole cells. Activation of hM1 (human Muscarinic receptor subtype 1, gene bank access NM_000738), rM1 (rat Muscarinic receptor subtype 1, gene bank access NM_080773), hM3 (human Muscarinic receptor subtype 3, gene bank access NM_000740NM_000740) and hM5 (human Muscarinic receptor subtype 5, gene bank access NM_0121258), receptors expressed in CHO cells (Chinese hamster ovary cells, ATCC) is quantified in a Molecular Devices FLIPR II™ instrument as an increase in fluorescent signal. Inhibition of hM3 and hM5 by compounds is determined by the decrease in fluorescent signal in response to 2 nM acetylcholine activation.
Prior to experiment, the cell culture medium is removed from the plates by inversion. […] Plates are incubated at 37° C. for 60 minutes prior to start the experiment. The incubation is terminated by washing the cells four times in assay buffer, leaving a residual 25 μl buffer per well. Cell plates are then transferred to the FLIPR, ready for compound additions.
The day of experiment, acetylcholine and compounds are diluted in assay buffer in three-fold concentration range (10 points serial dilution) for addition by FLIPR instrument. For all calcium assays, a baseline reading is taken for 10 seconds followed by the addition of 12.5 μl of compounds, resulting in a total well volume of 37.5 μl. Data is collected every second for 60 pictures and then every 6 seconds for 20 pictures prior to the addition of agonist. For hM3 and hM5, before agonist addition, a second baseline reading is taken for 10 seconds followed by the addition of 12.5 μl of agonist or buffer, producing a final volume of 50 μl. After agonist stimulation, the FLIPR continues to collect data every second for 60 pictures and then every 6 seconds for 20 pictures. The fluorescence emission is read using filter 1 (emission 510-570 nm) by the FLIPR on board CCD camera.
Calcium mobilization output data are calculated as the maximal relative fluorescence unit (RFU) minus the minimal value for both compound and agonist reading frame (except for hM1 and rM1 using only the maximal RFU). Data are analyzed using sigmoidal fits of a non-linear curve-fitting program (XLfit version 4.2.2 Excel add-in version 4.2.2 build 18 math 1Q version 2.1.2 build 18). All pEC50 and plC50 values are reported as arithmetic means ±standard error of mean of ‘n’ independent experiments.
In general terms: Calcium flux is commonly read through the fluorescence of an indicator in the cells.
Usually EC50 stands for the concentration needed to bring the measured effect to its halfway point. Turning to `COC(=O)N1CCC(C)(N2CCC(N3C(=O)Cc4cc(F)c(C)cc43)CC2)C1` (single isomer, unassigned) [Example 83, methyl 3-(4-(5-fluoro-6-methyl-2-oxoindolin-1-yl)piperidin-1-yl)-3-methylpyrrolidine-1-carboxylate], the EC50 was 3560 nM.

Staying with this test, now noted: hM5 expressed in CHO cells, intracellular Ca2+ release, read-out: hM5 EC50.
Regarding `CCOC(=O)N1CCC(C)(N2CCC(N3C(=O)Cc4ccc(C)cc43)CC2)C1` (single isomer, unassigned) [Example 69, ethyl 3-methyl-3-(4-(6-methyl-2-oxoindolin-1-yl)piperidin-1-yl)pyrrolidine-1-carboxylate], the EC50 is 1370 nM.
For `CCOC(=O)N1CCC(C)(N2CCC(N3C(=O)Cc4ccccc43)CC2)C1` (single isomer, unassigned) [Example 72, ethyl 3-methyl-3-(4-(2-oxoindolin-1-yl)piperidin-1-yl)pyrrolidine-1-carboxylate], the EC50 was over 40000 nM.
In the case of `CCOC(=O)N1CCC(C)(N2CCC(N3C(=O)Cc4ccccc43)CC2)C1` (single isomer, unassigned) [Example 73, ethyl 3-methyl-3-(4-(2-oxoindolin-1-yl)piperidin-1-yl)pyrrolidine-1-carboxylate], the EC50 is over 40000 nM.
Still for that read-out and setting: for `CCOC(=O)N1CCC(C)(N2CCC(N3C(=O)Cc4ccc(F)cc43)CC2)C1` (single isomer, unassigned) [Example 74, ethyl 3-(4-(6-fluoro-2-oxoindolin-1-yl)piperidin-1-yl)-3-methylpyrrolidine-1-carboxylate] the value was over 21200 nM.
On to `CCOC(=O)N1CCC(C)(N2CCC(N3C(=O)Cc4ccc(F)cc43)CC2)C1` (single isomer, unassigned) [Example 75, ethyl 3-(4-(6-fluoro-2-oxoindolin-1-yl)piperidin-1-yl)-3-methylpyrrolidine-1-carboxylate], for which the EC50 is over 27000 nM.
As to `CCOC(=O)N1CCC(C)(N2CCC(N3C(=O)Cc4cc(F)ccc43)CC2)C1` (single isomer, unassigned) [Example 79, ethyl 3-(4-(5-fluoro-2-oxoindolin-1-yl)piperidin-1-yl)-3-methylpyrrolidine-1-carboxylate], the EC50 worked out at 2540 nM.
On to `CCOC(=O)N1CCC(C)(N2CCC(N3C(=O)Cc4cc(F)c(C)cc43)CC2)C1` (single isomer, unassigned) [Example 81, ethyl 3-(4-(5-fluoro-6-methyl-2-oxoindolin-1-yl)piperidin-1-yl)-3-methylpyrrolidine-1-carboxylate], for which the EC50 turned out to be 1240 nM.
As to `CCOC(=O)N1CCC(C)(N2CCC(n3c(=O)[nH]c4ccccc43)CC2)C1` (centres unmarked) [Example 1, ethyl 3-methyl-3-(4-(2-oxo-2,3-dihydro-1H-benzo[d]imidazol-1-yl)piperidin-1-yl)pyrrolidine-1-carboxylate], the EC50 came out at 136 nM.
For `CCNC(=O)N1CCC(C)(N2CCC(n3c(=O)[nH]c4ccccc43)CC2)C1` (centres unmarked) [Example 5, N-ethyl-3-methyl-3-(4-(2-oxo-2,3-dihydro-1H-benzo[d]imidazol-1-yl)piperidin-1-yl)pyrrolidine-1-carboxamide], the EC50 is over 2960 nM.
In the case of `CC1(N2CCC(n3c(=O)[nH]c4cc(F)ccc43)CC2)CCN(C(=O)OCCF)C1` (centres unmarked) [Example 10, 2-fluoroethyl 3-(4-(5-fluoro-2-oxo-2,3-dihydro-1H-benzo[d]imidazol-1-yl)piperidin-1-yl)-3-methylpyrrolidine-1-carboxylate], the concentration giving a half-maximal response (EC50) is 537 nM.
